Data published in patent US20250017914A1, “6-AZA-QUINOLINE DERIVATIVES AND RELATED USES” (Black Diamond Therapeutics, Inc., priority 2021, published 2025).

These compounds were tested against T1, BaF3 BRAF-KIAA1549 fusion cells (Homo sapiens, UniProt P15056) (assay: BaF3 BRAF-KIAA1549 fusion cell proliferation assay (CellTiterGlo, 96 hours)). Details: Table A1.
T1 construct: The BRAF-KIAA1549 fusion mutant was subcloned into pMXs-IRES-Blasticidin (RTV-016, Cell Biolabs, San Diego, CA); No tag given; Q9HCM3 (UPF0606 protein KIAA1549)
T1 sequence (P15056 whole entry, change not shown, the tested form may be a part): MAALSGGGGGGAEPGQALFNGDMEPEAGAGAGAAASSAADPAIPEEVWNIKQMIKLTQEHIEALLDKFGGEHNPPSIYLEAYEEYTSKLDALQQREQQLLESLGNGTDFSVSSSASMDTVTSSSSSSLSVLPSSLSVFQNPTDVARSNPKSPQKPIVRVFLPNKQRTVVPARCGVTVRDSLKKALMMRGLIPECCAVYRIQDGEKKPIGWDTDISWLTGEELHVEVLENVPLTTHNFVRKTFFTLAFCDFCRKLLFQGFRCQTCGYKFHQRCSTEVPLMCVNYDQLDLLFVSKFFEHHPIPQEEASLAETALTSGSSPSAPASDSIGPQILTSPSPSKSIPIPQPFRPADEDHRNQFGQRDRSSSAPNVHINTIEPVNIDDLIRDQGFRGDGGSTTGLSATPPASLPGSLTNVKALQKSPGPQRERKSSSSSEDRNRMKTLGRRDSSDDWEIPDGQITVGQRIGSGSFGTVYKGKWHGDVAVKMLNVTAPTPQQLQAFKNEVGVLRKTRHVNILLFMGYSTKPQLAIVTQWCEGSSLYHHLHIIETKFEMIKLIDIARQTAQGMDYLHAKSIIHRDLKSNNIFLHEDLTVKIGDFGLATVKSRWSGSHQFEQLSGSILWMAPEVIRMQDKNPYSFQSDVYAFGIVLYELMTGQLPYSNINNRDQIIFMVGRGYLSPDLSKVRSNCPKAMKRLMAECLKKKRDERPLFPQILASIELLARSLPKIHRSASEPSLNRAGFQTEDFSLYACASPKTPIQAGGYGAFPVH
Assay type: cell-based
In short: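 BaF3 cells retrovirally transduced with BRAF-KIAA1549 fusion and blasticidin-selected were plated at 7×10^4 c/well in RPMI, 10% heat-inactivated FBS, 1% L-glutamine, and exposed to compound for 96 hours. Growth was read as ATP content by CellTiterGlo luminescence. IC50 was fitted by Levenberg-Marquardt, normalised to DMSO-treated cells.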

GI50 [µM] | Compound
0.02 to 0.1 | CNc1cc2ncc(-c3cc(NC(=O)c4cc(C(C)(C)C#N)ccn4)cc(F)c3C)cc2cn1 [Compound 38, 4-(2-Cyanopropan-2-yl)-N-(3-fluoro-4-methyl-5-(7-(methylamino)-1,6-naphthyridin-3-yl)phenyl)picolinamide]
0.1 to 0.5 | CNc1cc2ncc(-c3cc(F)c(F)c(NC(=O)c4cc(C(C)(C)C#N)ccn4)c3)cc2cn1 [Compound 46, 4-(2-Cyanopropan-2-yl)-N-(2,3-difluoro-5-(7-(methylamino)-1,6-naphthyridin-3-yl)phenyl)picolinamide]
0.02 to 0.1 | CNc1cc2ncc(-c3cc(NC(=O)c4cc(C(F)(F)F)c(C)cn4)ccc3C)cc2cn1 [Compound 5, 5-Methyl-N-(4-methyl-3-(7-(methylamino)-1,6-naphthyridin-3-yl)phenyl)-4-(trifluoromethyl)picolinamide]
0.02 to 0.1 | CNc1cc2ncc(-c3cc(NC(=O)c4cc(C(F)(F)F)c(C)cn4)cnc3C)cc2cn1 [Compound 25, 5-Methyl-N-(6-methyl-5-(7-(methylamino)-1,6-naphthyridin-3-yl)pyridin-3-yl)-4-(trifluoromethyl)picolinamide]
0.02 to 0.1 | CNc1cc2ncc(-c3cc(NC(=O)c4cc(C(C)(C)C#N)ccn4)ccc3Cl)cc2cn1 [Compound 41, N-(4-Chloro-3-(7-(methylamino)-1,6-naphthyridin-3-yl)phenyl)-4-(2-cyanopropan-2-yl)picolinamide]
0.02 to 0.1 | CNc1cc2ncc(-c3cc(NC(=O)c4cc(C(C)(C)C#N)ccn4)cc(F)c3Cl)cc2cn1 [Compound 44, N-(4-chloro-3-fluoro-5-(7-(methylamino)-1,6-naphthyridin-3-yl)phenyl)-4-(2-cyanopropan-2-yl)picolinamide]
0.02 to 0.1 | CNc1cc2ncc(-c3cc(NC(=O)c4cc(C(C)(C)C#N)ccn4)c(F)cc3C)cc2cn1 [Compound 42, 4-(2-Cyanopropan-2-yl)-N-(2-fluoro-4-methyl-5-(7-(methylamino)-1,6-naphthyridin-3-yl)phenyl)picolinamide]
≥ 0.5 | CNc1cc2ncc(-c3cc(NC(=O)c4cc(C(C)(C)C#N)ccn4)c(F)c(F)c3C)cc2cn1 [Compound 51, 4-(2-Cyanopropan-2-yl)-N-(2,3-difluoro-4-methyl-5-(7-(methylamino)-1,6-naphthyridin-3-yl)phenyl)picolinamide]
0.02 to 0.1 | CNc1cc2ncc(-c3cc(NC(=O)c4nccc(C(F)(F)F)c4Cl)cnc3C)cc2cn1 [Compound 26, 3-Chloro-N-(6-methyl-5-(7-(methylamino)-1,6-naphthyridin-3-yl)pyridin-3-yl)-4-(trifluoromethyl)picolinamide]
0.02 to 0.1 | Cc1ncc(NC(=O)c2cc(C(C)(C)C#N)ccn2)cc1-c1cnc2cc(N)ncc2c1 [Compound 176, N-(5-(7-amino-1,6-naphthyridin-3-yl)-6-methylpyridin-3-yl)-4-(2-cyanopropan-2-yl)picolinamide]
0.1 to 0.5 | CNc1cc2ncc(-c3cc(NC(=O)[C@@H](C)n4cnc(C(F)(F)F)n4)ccc3C)cc2cn1 (single isomer, unassigned) [Compound 69]
< 0.02 | CNc1cc2nc(C#N)c(-c3cc(NC(=O)c4ccnc(C(F)(F)F)c4)ccc3C)cc2cn1 [Compound 79, N-(3-(2-cyano-7-(methylamino)-1,6-naphthyridin-3-yl)-4-methylphenyl)-2-(trifluoromethyl)isonicotinamide]
< 0.02 | CNc1cc2ncc(-c3cc(NC(=O)c4cccc(N(C)C)c4)ccc3C)cc2cn1 [Compound 4, 3-(Dimethylamino)-N-(4-methyl-3-(7-(methylamino)-1,6-naphthyridin-3-yl)phenyl)benzamide]
0.1 to 0.5 | CNc1cc2ncc(-c3cc(NC(=O)C[C@H]4C[C@H](C(F)(F)F)CCO4)cnc3C)cc2cn1 (single isomer, unassigned) [Compound 36]
< 0.02 | CNc1cc2ncc(-c3cc(NC(=O)c4cc(C(F)(F)F)ccn4)ccc3C)cc2cn1 [Compound 1, N-(4-methyl-3-(7-(methylamino)-1,6-naphthyridin-3-yl)phenyl)-4-(trifluoromethyl)picolinamide]
≥ 0.5 | CNc1cc2ncc(-c3cc(NC(=N)c4cc(C(F)(F)F)ccn4)cnc3C)cc2cn1 [Compound 64, N-(6-Methyl-5-(7-(methylamino)-1,6-naphthyridin-3-yl)pyridin-3-yl)-4-(trifluoromethyl)picolinimidamide]
0.1 to 0.5 | CNc1cc2ncc(-c3cc(NC(=O)c4cc(C(C)(C)C#N)ccn4)c(Cl)cc3C)cc2cn1 [Compound 50, N-(2-Chloro-4-methyl-5-(7-(methylamino)-1,6-naphthyridin-3-yl)phenyl)-4-(2-cyanopropan-2-yl)picolinamide]
0.02 to 0.1 | CNc1cc2ncc(-c3cc(NC(=O)c4cc(C(C)(C)C#N)ccn4)nnc3C)cc2cn1 [Compound 77, 4-(2-cyanopropan-2-yl)-N-(6-methyl-5-(7-(methylamino)-1,6-naphthyridin-3-yl)pyridazin-3-yl)picolinamide]
0.1 to 0.5 | CNc1cc2ncc(-c3ccc(F)c(NC(=O)c4cc(C(C)(C)C#N)ccn4)c3)cc2cn1 [Compound 45, 4-(2-Cyanopropan-2-yl)-N-(2-fluoro-5-(7-(methylamino)-1,6-naphthyridin-3-yl)phenyl)picolinamide]
0.02 to 0.1 | Cc1ccc(NC(=O)c2cc(C(F)F)ccn2)cc1-c1cnc2cc(NCCC#N)ncc2c1 [Compound 78, N-(3-(7-((2-cyanoethyl)amino)-1,6-naphthyridin-3-yl)-4-methylphenyl)-4-(difluoromethyl)picolinamide]
< 0.02 | CNc1cc2ncc(-c3cc(NC(=O)c4ccnc(C5(F)CC5)c4)ccc3C)cc2cn1 [Compound 18, 2-(1-Fluorocyclopropyl)-N-(4-methyl-3-(7-(methylamino)-1,6-naphthyridin-3-yl)phenyl)isonicotinamide]
0.02 to 0.1 | CNc1cc2ncc(-c3cc(NC(=O)c4ccnc(C(F)(F)F)c4)ccc3C)cc2cn1 [Compound 2, N-(4-methyl-3-(7-(methylamino)-1,6-naphthyridin-3-yl)phenyl)-2-(trifluoromethyl)isonicotinamide]
< 0.02 | CNc1cc2ncc(-c3cc(NC(=O)c4ccnc(C(C)(F)F)c4)ccc3C)cc2cn1 [Compound 9, 2-(1,1-difluoroethyl)-N-(4-methyl-3-(7-(methylamino)-1,6-naphthyridin-3-yl)phenyl)isonicotinamide]

Same assay, conditions: Table A2

GI50 [µM] | Compound
0.02 to 0.1 | CNc1cc2ncc(-c3cc(NC(=O)c4cnc5n4C[C@@H](C)CC5)cnc3C)cc2cn1 (single isomer, unassigned) [Compound 258]
0.02 to 0.1 | CNc1cc2ncc(-c3cc(NC(=O)c4n[nH]c5c4C[C@H](C)O[C@@H]5C)ccc3C)cc2cn1 [Compound 264, (5S,7R)-5,7-dimethyl-N-(4-methyl-3-(7-(methylamino)-1,6-naphthyridin-3-yl)phenyl)-1,4,5,7-tetrahydropyrano[3,4-c]pyrazole-3-carboxamide]
≥ 0.5 | CNc1cc2ncc(-c3cc(NC(=O)c4cccc5c4CCC5=O)cnc3C)cc2cn1 [Compound 212, N-(6-methyl-5-(7-(methylamino)-1,6-naphthyridin-3-yl)pyridin-3-yl)-1-oxo-2,3-dihydro-1H-indene-4-carboxamide]
≥ 0.5 | CNc1cc2ncc(-c3cc(NC(=O)c4cnn(CC(F)(F)F)c4C)cnc3C)cc2cn1 [Compound 240, 5-methyl-N-(6-methyl-5-(7-(methylamino)-1,6-naphthyridin-3-yl)pyridin-3-yl)-1-(2,2,2-trifluoroethyl)-1H-pyrazole-4-carboxamide]
≥ 0.5 | CNc1cc2ncc(-c3cc(NC(=O)c4noc5c4COCC5)cnc3C)cc2cn1 [Compound 246, N-(6-methyl-5-(7-(methylamino)-1,6-naphthyridin-3-yl)pyridin-3-yl)-6,7-dihydro-4H-pyrano[3,4-d]isoxazole-3-carboxamide]
0.02 to 0.1 | CCC(OC)c1ccnc(C(=O)Nc2cnc(C)c(-c3cnc4cc(NC)ncc4c3)c2)c1 (stereo not drawn) [Compound 260, 4-(1-methoxypropyl)-N-(6-methyl-5-(7-(methylamino)-1,6-naphthyridin-3-yl)pyridin-3-yl)picolinamide]
≥ 0.5 | CNc1cc2ncc(-c3cc(NC(=O)c4cnc5n4CCC(C)C5)ccc3C)cc2cn1 (stereo not drawn) [Compound 195, 7-methyl-N-(4-methyl-3-(7-(methylamino)-1,6-naphthyridin-3-yl)phenyl)-5,6,7,8-tetrahydroimidazo[1,2-a]pyridine-3-carboxamide]
0.02 to 0.1 | CNc1cc2ncc(-c3cc(NC(=O)c4cc(C(O)C5CC5)ccn4)cnc3C)cc2cn1 (stereo not drawn) [Compound 201, 4-(cyclopropyl(hydroxy)methyl)-N-(6-methyl-5-(7-(methylamino)-1,6-naphthyridin-3-yl)pyridin-3-yl)picolinamide]
0.02 to 0.1 | CNc1cc2ncc(-c3cc(NC(=O)c4cnc5n4C[C@H](C)CC5)ccc3C)cc2cn1 (single isomer, unassigned) [Compound 230]
0.1 to 0.5 | CNc1cc2ncc(-c3cc(NC(=O)c4cnc5n4CCCCC5)cnc3C)cc2cn1 [Compound 232, N-(6-methyl-5-(7-(methylamino)-1,6-naphthyridin-3-yl)pyridin-3-yl)-6,7,8,9-tetrahydro-5H-imidazo[1,2-a]azepine-3-carboxamide]
≥ 0.5 | CNc1cc2ncc(-c3cc(NC(=O)c4cnc5n4CCCC5)cnc3C)cc2cn1 [Compound 209, N-(6-methyl-5-(7-(methylamino)-1,6-naphthyridin-3-yl)pyridin-3-yl)-5,6,7,8-tetrahydroimidazo[1,2-a]pyridine-3-carboxamide]
0.02 to 0.1 | CNc1cc2ncc(-c3cc(NC(=O)c4cc([C@@H](O)C(C)(F)F)ccn4)cnc3C)cc2cn1 (single isomer, unassigned) [Compound 248]
0.02 to 0.1 | CNc1cc2ncc(-c3cc(NC(=O)c4noc5c4C[C@@H](C)CC5)ccc3C)cc2cn1 (single isomer, unassigned) [Compound 236]
